Laboratory results: EP0247507A2, “Composition for transdermal therapeutical systems of high-ceiling diuretics, and process for producing it” (priority 1986, dated 1987)

Tested on: Ratte
Experiment: Salidiuretic effect in the rat (urine volume, Na, K, Cl excretion) after percutaneous (TTS) or oral administration
Format: in vivo
Source text: Die folgenden Beispiele sollen die Erfindung erläutern. Die Zusammensetzungen wurden durch Mischen der Wirkstoffe mit der Grundlage in einem Rührwerk mit eingebautem Homogenisator erhalten. Als transdermale therapeutische Systeme wurden aus dem deutschen Gebrauchsmuster 84 07 036 bekannte Pflasterpackungen verwendet.

[1] = Furosemid 5 mg/rat p.o. (suspended in 2 % aqueous starch solution), collection period 1 - 5 h, n = 4
[2] = Furosemid 5 mg/rat p.o. (suspended in 2 % aqueous starch solution), collection period 1 - 24 h, n = 4
[3] = Furosemid 5 mg/rat p.o. (suspended in 2 % aqueous starch solution), collection period 6 - 24 h, n = 4
[4] = Piretanid 20 mg/rat p.o. (suspended in 2 % aqueous starch solution), collection period 1 - 5 h, n = 2
[5] = Piretanid 20 mg/rat p.o. (suspended in 2 % aqueous starch solution), collection period 1 - 24 h, n = 2
[6] = Piretanid 20 mg/rat p.o. (suspended in 2 % aqueous starch solution), collection period 6 - 24 h, n = 2

Work on `NS(=O)(=O)c1cc(C(=O)O)c(NCc2ccco2)cc1Cl` [Furosemid, 4-Chlor-N-furfuryl-5-sulfamoylanthranilsäure] yielded a Chlorid [1] of 6.10 ± 0.62 mmol/kg, a Kalium [1] of 1.40 ± 0.16 mmol/kg and a Natrium [1] of 4.81 ± 0.75 mmol/kg. The Urin [1] was 47.8 ± 3.5 mL/kg, the Chlorid [2] was 6.59 ± 0.61 mmol/kg and the Kalium [2] was 3.88 ± 0.88 mmol/kg. The Natrium [2] was 6.03 ± 0.75 mmol/kg, the Urin [2] was 59.7 ± 6.2 mL/kg and the Chlorid [3] was 0.49 ± 0.11 mmol/kg. The Kalium [3] was 2.48 ± 0.79 mmol/kg, the Natrium [3] was 1.22 ± 0.21 mmol/kg and the Urin [3] was 11.9 ± 3.6 mL/kg.
`NS(=O)(=O)c1cc(C(=O)O)cc(N2CCCC2)c1Oc1ccccc1` [Piretanid, 4-Phenoxy-3-(1-pyrrolidinyl)-5-sulfamoylbenzoesäure] was tested, and the Chlorid [4] was 8.36 mmol/kg, the Kalium [4] was 1.92 mmol/kg and the Natrium [4] was 7.07 mmol/kg. It also gave a Urin [4] of 65.0 mL/kg, a Chlorid [5] of 11.36 mmol/kg and a Kalium [5] of 11.67 mmol/kg. It also gave a Natrium [5] of 11.78 mmol/kg, a Urin [5] of 112.1 mL/kg and a Chlorid [6] of 3.00 mmol/kg. The Kalium [6] was 9.75 mmol/kg, the Natrium [6] was 4.71 mmol/kg and the Urin [6] was 47.1 mL/kg.
